Molecular target: T1, recombinant human GR (Homo sapiens, UniProt P04150)
T1 construct: purchased Panvera/Invitrogen P2812 (kit P2893)
T1 sequence (P04150 1-777): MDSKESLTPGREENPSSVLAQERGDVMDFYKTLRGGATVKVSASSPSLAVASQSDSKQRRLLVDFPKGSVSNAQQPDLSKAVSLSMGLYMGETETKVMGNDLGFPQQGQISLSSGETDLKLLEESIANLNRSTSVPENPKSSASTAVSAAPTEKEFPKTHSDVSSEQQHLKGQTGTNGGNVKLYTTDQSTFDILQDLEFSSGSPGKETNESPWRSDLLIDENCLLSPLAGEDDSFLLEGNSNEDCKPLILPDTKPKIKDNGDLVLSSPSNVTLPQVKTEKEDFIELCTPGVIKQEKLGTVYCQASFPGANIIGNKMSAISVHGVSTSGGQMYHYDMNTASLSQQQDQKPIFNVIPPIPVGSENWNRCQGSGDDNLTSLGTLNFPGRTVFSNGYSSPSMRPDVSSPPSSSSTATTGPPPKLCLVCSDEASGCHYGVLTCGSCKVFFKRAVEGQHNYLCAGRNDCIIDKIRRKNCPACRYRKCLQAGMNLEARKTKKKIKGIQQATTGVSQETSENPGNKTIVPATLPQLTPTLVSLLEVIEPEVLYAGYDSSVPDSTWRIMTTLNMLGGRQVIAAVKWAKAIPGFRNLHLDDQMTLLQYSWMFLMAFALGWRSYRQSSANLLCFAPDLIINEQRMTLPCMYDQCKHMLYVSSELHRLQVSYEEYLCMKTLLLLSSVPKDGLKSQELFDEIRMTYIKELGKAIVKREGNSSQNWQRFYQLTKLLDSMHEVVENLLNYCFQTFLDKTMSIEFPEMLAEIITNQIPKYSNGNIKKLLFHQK
Assay: Human Glucocorticoid Receptor (GR) Assay (fluorescence polarization competition, Panvera/Invitrogen kit)
Details: GS Red Fluoromone tracer, 2 hours at room temperature, 100% control 10 μM Dexamethasone, read-out: Inhibition of GR binding, IC50
Experimental: Human Glucocorticoid Receptor (GR) Assay The assay is based on a commercial kit from Panvera/Invitrogen (Part number P2893). The assay technology is fluorescence polarization. The kit utilises recombinant human GR (Panvera, Part number P2812), a Fluoromone™ labelled tracer (GS Red, Panvera, Part number P2894) and a Stabilizing Peptide 10× (Panvera, Part number P2815). The GR and Stabilizing Peptide reagents are stored at −70° C. while the GS Red is stored at −20° C. Also included in the kit are 1M DTT (Panvera, Part number P2325, stored at −20° C.) and GR Screening buffer 10× (Panvera, Part number P2814, stored at −70° C. initially but once thawed stored at room temperature). Avoid repeated freeze/thaws for all reagents. The GR Screening buffer 10× comprises 100 mM potassium phosphate, 200 mM sodium molybdate, 1 mM EDTA and 20% DMSO. Test compounds (1 μL) and controls (1 μL) in 100% DMSO were added to black is polystyrene 384-well plates (Greiner low volume black flat-bottom, part number 784076). 0% control was 100% DMSO and 100% control was 10 μM Dexamethasone. Background solution (8 μL; assay buffer 10×, Stabilizing Peptide, DTT and ice cold MQ water) was added to the background wells. GS Red solution (7 μL; assay buffer 10×, Stabilizing Peptide, DTT, GS Red and ice cold water) was added to all wells except background wells. GR solution (7 μL; assay buffer 10×, Stabilizing Peptide, DTT, GR and ice cold water) was added to all wells. The plate was sealed and incubated in a dark at room temperature for 2 hours. The plate was read in an Analyst plate reader (LJL Biosystems/Molecular Devices Corporation) or other similar plate reader capable of recording fluorescence polarization (excitation wavelength 530 nm, emission wavelength 590 nm and a dichroic mirror at 561 nm).

Structure (SMILES)	IC50
C[C@H]1C[C@@H]2[C@H]([C@@H](O)C[C@@]3(C)[C@H]2CC[C@]3(OC(=O)c2ccco2)C(=O)SCC#N)[C@@]2(C)Cc3cnn(-c4ccc(F)nc4)c3C=C12 [Example 22, (1R,3aS,3bS,5S,10aR,10bS,11S,12aS)-1-{[(Cyanomethyl)sulfanyl]carbonyl}-7-(6-fluoropyridin-3-yl)-11-hydroxy-5,10a,12a-trimethyl-1,2,3,3a,3b,4,5,7,10,10a,10b,11,12,12a-tetradecahydrocyclopenta[5,6]naphtho[1,2-f]indazol-1-yl furan-2-carboxylate]	1.7 nM
C[C@]12Cc3cnn(-c4ccc(F)nc4)c3C=C1CC[C@H]1[C@@H]3CC[C@](OC(=O)C4CCOC4)(C(=O)SCF)[C@@]3(C)C[C@H](O)[C@@]12F (single isomer, unassigned) [16 (R)/(S) isomer]	0.44 nM
C[C@]12Cc3cnn(-c4ccc(F)nc4)c3C=C1CC[C@H]1[C@@H]3CC[C@](OC(=O)[C@H]4CCCO4)(C(=O)SCC#N)[C@@]3(C)C[C@H](O)[C@@]12F [Example 12, (1R,3aS,3bS,10aS,10bR,11S,12aS)-1-{[(Cyanomethyl)sulfanyl]carbonyl}-10b-fluoro-7-(6-fluoropyridin-3-yl)-11-hydroxy-10a,12a-dimethyl-1,2,3,3a,3b,4,5,7,10, 10a,10b,11,12,12a-tetradecahydrocyclopenta[5,6]naphtho[1,2-f]indazol-1-yl (2R)-tetrahydrofuran-2-carboxylate]	1 nM
CC12Cc3cnn(-c4ccc(F)nc4)c3C=C1CC[C@@H]1C2[C@@H](O)C[C@@]2(C)[C@H]1CC[C@]2(OC(=O)C1CC1)C(=O)OCC#N (stereo in doubt) [Example 20, (1R,3aS,3bS,10aS,10bR,11S,12aS)-1-{[Cyanomethyloxy]carbonyl}-7-(6-fluoropyridin-3-yl)-11-hydroxy-10a,12a-dimethyl-1,2,3,3a,3b,4,5,7,10,10a,10b,11,12,12a-tetradecahydrocyclopenta[5,6]naphtho[1,2-f]indazol-1-yl cyclopropanecarboxylate]	2.3 nM
C[C@]12Cc3cnn(-c4ccc(F)nc4)c3C=C1CC[C@H]1[C@@H]3CC[C@](OC(=O)C4CCOC4)(C(=O)SCC#N)[C@@]3(C)C[C@H](O)[C@@]12F (mixture of isomers) [Example 15 (racemate), (1R,3aS,3bS,10aS,10bR,11S,12aS)-1-{[(Cyanomethyl)sulfanyl]carbonyl}-10b-fluoro-7-(6-fluoropyridin-3-yl)-11-hydroxy-10a,12a-dimethyl-1,2,3,3a,3b,4,5,7,10,10a,10b,11,12,12a-tetradecahydrocyclopenta[5,6]naphtho[1,2-f]indazol-1-yl tetrahydrofuran-3-carboxylate]	0.55 nM
COCC(=O)O[C@]1(C(=O)SCF)[C@H](C)C[C@H]2[C@@H]3CCC4=Cc5c(cnn5-c5ccc(F)cc5)C[C@]4(C)[C@@]3(F)[C@@H](O)C[C@@]21C [Example 6, (1R,2R,3aS,3bS,10aS,10bR,11S,12aS)-10b-Fluoro-1-{[(fluoromethyl)sulfanyl]carbonyl}-7-(4-fluorophenyl)-11-hydroxy-2,10a,12a-trimethyl-1,2,3,3a,3b,4,5,7,10,10a,10b,11,12,12a-tetradecahydrocyclopenta[5,6]naphtho[1,2-f]indazol-1-yl methoxyacetate]	7.8 nM
C[C@]12Cc3cnn(-c4ccc(F)nc4)c3C=C1CC[C@H]1[C@@H]3CC[C@](OC(=O)C4CCOC4)(C(=O)SCC#N)[C@@]3(C)C[C@H](O)[C@@]12F (single isomer, unassigned) [15 (R)/(S) isomer]	0.57 nM
CCC(=O)O[C@]1(C(=O)SCC#N)[C@H](C)C[C@H]2[C@@H]3CCC4=Cc5c(cnn5-c5ccc(F)cc5)C[C@]4(C)[C@@]3(F)[C@@H](O)C[C@@]21C [Example 26, (1R,2R,3aS,3bS,10aS,10bR,11S,12aS)-10b-Fluoro-1-{[(cyanomethyl)sulfanyl]carbonyl}-7-(4-fluorophenyl)-11-hydroxy-2,10a,12a-trimethyl-1,2,3,3a,3b,4,5,7,10,10a,10b,11,12,12a-tetradecahydrocyclopenta[5,6]naphtho[1,2-f]indazol-1-yl propanoate]	17 nM
C[C@@H]1C[C@H]2[C@@H]3CCC4=Cc5c(cnn5-c5ccc(F)nc5)C[C@]4(C)[C@@]3(F)[C@@H](O)C[C@]2(C)[C@@]1(OC(=O)c1cocn1)C(=O)SCF [Example 4, (1R,2R,3aS,3bS,10aS,10bR,11S,12aS)-10b-Fluoro-1-{[(fluoromethyl)sulfanyl]carbonyl}-7-(6-fluoropyridin-3-yl)-11-hydroxy-2,10a,12a-trimethyl-1,2,3,3a,3b,4,5,7,10,10a,10b,11,12,12a-tetradecahydrocyclopenta[5,6]naphtho[1,2-f]indazol-1-yl 1,3-oxazole-4-carboxylate]	2.8 nM
C[C@]12Cc3cnn(-c4ccc(F)nc4)c3C=C1CC[C@H]1[C@@H]3CC[C@](OC(=O)C4CCOC4)(C(=O)SCC#N)[C@@]3(C)C[C@H](O)[C@@]12F (single isomer, unassigned) [15 (S)/(R) isomer]	0.58 nM
C[C@]12Cc3cnn(-c4ccc(F)nc4)c3C=C1CC[C@H]1[C@@H]3CC[C@](OC(=O)[C@H]4CCCO4)(C(=O)SCCO)[C@@]3(C)C[C@H](O)[C@@]12F [Example 14, (1R,3aS,3bS,10aS,10bR,11S,12aS)-10b-Fluoro-7-(6-fluoropyridin-3-yl)-11-hydroxy-1-{[(2-hydroxyethyl)sulfanyl]carbonyl}-10a,12a-dimethyl-1,2,3,3a,3b,4,5,7, 10, 10a, 10,11,12,12a-tetradecahydrocyclopenta[5,6]naphtho[1,2-f]indazol-1-yl (2R)-tetrahydrofuran-2-carboxylate]	0.65 nM
C[C@]12Cc3cnn(-c4ccc(F)nc4)c3C=C1CC[C@H]1[C@@H]3CC[C@](OC(=O)[C@@H]4CCCO4)(C(=O)SCC#N)[C@@]3(C)C[C@H](O)[C@@]12F [Example 17, (1R,3aS,3bS,10aS,10bR,11S,12aS)-1-{[(Cyanomethyl)sulfanyl]carbonyl}-10b-fluoro-7-(6-fluoropyridin-3-yl)-11-hydroxy-10a,12a-dimethyl-1,2,3,3a,3b,4,5,7,10,10a,10b,11,12,12a-tetradecahydrocyclopenta[5,6]naphtho[1,2-f]indazol-1-yl (2S)-tetrahydrofuran-2-carboxylate]	0.55 nM
COCC(=O)O[C@]1(C(=O)SCF)[C@H](C)C[C@H]2[C@@H]3CCC4=Cc5c(cnn5-c5ccc(F)nc5)C[C@]4(C)[C@@]3(F)[C@@H](O)C[C@@]21C [Example 1, (1R,2R,3aS,3bS,10aS,10bR,11S,12aS)-10b-Fluoro-1-{[(fluoromethyl)sulfanyl]carbonyl}-7-(6-fluoropyridin-3-yl)-11-hydroxy-2,10a,12a-trimethyl-1,2,3,3a,3b,4,5,7,10,10a,10b,11,12,12a-tetradecahydrocyclopenta[5,6]naphtho[1,2-f]indazol-1-yl methoxyacetate]	3.5 nM

— patent US8338587B2, “Compounds” (AstraZeneca AB, priority 2009, dated 2012)
